Source: US8153809B2, “Dihydropyridone ureas as P2X7 modulators” (Roche Palo Alto LLC, priority 2008, dated 2012)

Target: T1, P2X7 (UniProt Q99572)
T1 sequence (Q99572 1-595): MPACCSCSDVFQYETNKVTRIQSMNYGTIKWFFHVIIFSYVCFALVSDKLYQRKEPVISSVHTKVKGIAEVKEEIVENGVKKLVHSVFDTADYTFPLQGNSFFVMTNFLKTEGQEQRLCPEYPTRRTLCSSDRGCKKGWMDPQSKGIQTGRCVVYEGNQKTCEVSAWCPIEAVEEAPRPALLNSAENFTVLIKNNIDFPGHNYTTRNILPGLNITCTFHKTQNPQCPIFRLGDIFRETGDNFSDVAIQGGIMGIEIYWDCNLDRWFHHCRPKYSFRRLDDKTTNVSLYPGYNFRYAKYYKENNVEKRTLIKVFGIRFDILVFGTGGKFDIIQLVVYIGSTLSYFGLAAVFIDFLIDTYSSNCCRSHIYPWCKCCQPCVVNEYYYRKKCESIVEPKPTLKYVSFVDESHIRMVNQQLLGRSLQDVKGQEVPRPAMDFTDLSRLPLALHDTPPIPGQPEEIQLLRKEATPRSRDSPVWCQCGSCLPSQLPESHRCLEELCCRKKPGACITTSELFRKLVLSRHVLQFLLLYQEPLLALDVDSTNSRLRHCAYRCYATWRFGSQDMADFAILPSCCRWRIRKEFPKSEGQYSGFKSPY
Experiment: pIC50 values for P2X7 (Table 1)
Type: cell-based
Experimental: Intracellular Calcium Flux (FLIPR) Assay
Compound and Reagent Preparation
Stock solutions of compounds were prepared from powders as a 10 mM DMSO stock solution. These solutions were stored at RT during the two week period of these experiments to prevent freeze-thaw of the DMSO stocks. The DMSO stocks were added to the appropriate assay buffer at a concentration of 10 μM, and then diluted serially to the final concentrations that were tested. […] The aqueous solutions of compounds as well as ATP (Sigma A7699) and BzATP (Sigma B6396) were prepared fresh for each day of experiment.
1321N1 cells stably expressing the full length human P2X7 gene (1321N1-hP2X7) and HEK293 cells stably expressing the full length rat P2X7 gene (HEK293-rP2X7) were obtained from the Roche Cell Culture Facility. 1321N1-hP2X7 cells were grown in Dulbecco's Modified Eagle's Medium (DMEM) high glucose supplemented with 10% FBS and 250 μg/mL G418. HEK293-rP2X7 cells were grown in DMEM/F-12 supplemented with 10% FBS, 1 mM CaCl2, 2 mM MgCl2, 2 mM L-Glutamine and 500 μg/ml G418. Cells were split such that they never became >70% confluent.
Intracellular Calcium Flux (FLIPR)
On the day prior to the experiment, 1321N1-hP2X7 or HEK293-rP2X7 cells were released into suspension with calcium-free PBS+Versene and washed by centrifugation with calcium-free PBS to remove the Versene.
On the day of the experiment, plates were washed with FLIPR buffer (calcium- and magnesium-free Hank's Balanced Salt Solution (HBSS) supplemented with 10 mM Hepes, 2.5 mM probenecid and 2 mM calcium chloride) using a BIO-TEK 96 channel plate washer and incubated with […] fluo-3 dye at 37° C. for one hr. The dye was then removed by plate washing and the cells were allowed to equilibrate for 20 min at room temperature with antagonist or vehicle (FLIPR buffer). Agonist (100 μM BzATP final concentration for hP2X7; 5 μM BzATP final concentration or rP2X7) was added online with the FLIPR and fluorescence measurements made at 1 sec intervals for 60 sec followed by 3 sec intervals for a further 4 min (5 min total). A final addition of 5 μM ionomycin was made and the maximal BzATP-evoked fluorescence normalized to the maximal ionomycin-evoked fluorescence.

pIC50	SMILES
8.055	COc1cc(Br)c(NC(=O)N2C=CC(=O)C[C@H]2c2ccc(F)cc2)cc1OC [Compound 3, (S)-2-(4-Fluoro-phenyl)-4-oxo-3,4-dihydro-2H-pyridine-1-carboxylic acid (2-bromo-4,5-dimethoxy-phenyl)-amide]
6.7	COC(=O)COc1cc(NC(=O)N2C=CC(=O)C[C@H]2c2ccc(F)cc2)c(Br)cc1Cl [Compound 30, (4-Bromo-2-chloro-5-{[(S)-2-(4-fluoro-phenyl)-4-oxo-3,4-dihydro-2H-pyridine-1-carbonyl]-amino}-phenoxy)-acetic acid methyl ester]
7.873	COc1cc(NC(=O)N2C=CC(=O)C[C@H]2c2ccc(F)cc2)c(Br)cc1C [Compound 12, (S)-2-(4-Fluoro-phenyl)-4-oxo-3,4-dihydro-2H-pyridine-1-carboxylic acid (2-bromo-5-methoxy-4-methyl-phenyl)-amide]
6.66	COc1cc(NC(=O)N2C=CC(=O)C[C@H]2c2ccc(F)cc2)c(C(C)C)cc1OC [Compound 13, (S)-2-(4-Fluoro-phenyl)-4-oxo-3,4-dihydro-2H-pyridine-1-carboxylic acid (2-isopropyl-4,5-dimethoxy-phenyl)-amide]
5.27	COC(=O)COc1cc(N(CC(=O)OC)C(=O)N2C=CC(=O)C[C@H]2c2ccc(F)cc2)c(Br)cc1Cl [Compound 31, (4-Bromo-2-chloro-5-{[(S)-2-(4-fluoro-phenyl)-4-oxo-3,4-dihydro-2H-pyridine-1-carbonyl]-methoxycarbonylmethyl-amino}-phenoxy)-acetic acid methyl ester]
6.175	O=C1C=CN(C(=O)Nc2ccc(OC(F)(F)F)cc2Br)[C@H](c2ccc(F)cc2)C1 [Compound 119]
7.293	COc1cc(NC(=O)N2C=CC(=O)C[C@H]2c2cccc(F)c2)c(Br)cc1OC(F)F [Compound 46, (S)-2-(3-Fluoro-phenyl)-4-oxo-3,4-dihydro-2H-pyridine-1-carboxylic acid (2-bromo-4-difluoromethoxy-5-methoxy-phenyl)-amide]
7.54	COc1cc(NC(=O)N2C=CC(=O)C[C@H]2c2ccc(F)c(F)c2)c(Br)cc1C [Compound 81, (S)-2-(3,4-Difluoro-phenyl)-4-oxo-3,4-dihydro-2H-pyridine-1-carboxylic acid (2-bromo-5-methoxy-4-methyl-phenyl)-amide]
5.475	COc1cc(NC(=O)N2C=CC(=O)C[C@@H]2c2cc(F)cc(F)c2)c(Br)cc1C [Compound 79, (R)-2-(3,5-Difluoro-phenyl)-4-oxo-3,4-dihydro-2H-pyridine-1-carboxylic acid (2-bromo-5-methoxy-4-methyl-phenyl)-amide]
6.95	CN(C)C(=O)COc1cc(NC(=O)N2C=CC(=O)C[C@H]2c2ccc(F)cc2)c(Br)cc1Cl [Compound 120, (S)-2-(4-Fluoro-phenyl)-4-oxo-3,4-dihydro-2H-pyridine-1-carboxylic acid (2-bromo-4-chloro-5-dimethylcarbamoylmethoxy-phenyl)-amide]
6.5175	O=C1C=CN(C(=O)Nc2cc(I)c(Cl)cc2Br)[C@H](c2ccc(F)cc2)C1 [Compound 10, (S)-2-(4-Fluoro-phenyl)-4-oxo-3,4-dihydro-2H-pyridine-1-carboxylic acid (2-bromo-4-chloro-5-iodo-phenyl)-amide]
7.12	Cc1cccc(NC(=O)N2C=CC(=O)C[C@H]2c2ccc(F)cc2)c1 [Compound 130, (S)-2-(4-Fluoro-phenyl)-4-oxo-3,4-dihydro-2H-pyridine-1-carboxylic acid m-tolylamide]
6.18	O=C1C=CN(C(=O)Nc2ccccc2)[C@H](c2ccc(F)cc2)C1 [Compound 126, (S)-2-(4-Fluoro-phenyl)-4-oxo-3,4-dihydro-2H-pyridine-1-carboxylic acid phenylamide]
7.785	O=C1C=CN(C(=O)Nc2ccc3ncccc3c2Br)[C@H](c2ccc(F)cc2)C1 [Compound 106, (S)-2-(4-Fluoro-phenyl)-4-oxo-3,4-dihydro-2H-pyridine-1-carboxylic acid (5-bromo-quinolin-6-yl)-amide]
7.095	Cc1cc2nccnc2cc1NC(=O)N1C=CC(=O)C[C@H]1c1ccc(F)cc1 [Compound 107, (S)-2-(4-Fluoro-phenyl)-4-oxo-3,4-dihydro-2H-pyridine-1-carboxylic acid (7-methyl-quinoxalin-6-yl)-amide]
6.84	COc1cc(NC(=O)N2C=CC(=O)C[C@H]2c2cccc(F)c2)ccc1C [Compound 70, (S)-2-(3-Fluoro-phenyl)-4-oxo-3,4-dihydro-2H-pyridine-1-carboxylic acid (3-methoxy-4-methyl-phenyl)-amide]
6.245	COc1cc(NC(=O)N2C=CC(=O)C[C@H]2c2ccc(F)cc2)ccc1Cl [Compound 71, (S)-2-(4-Fluoro-phenyl)-4-oxo-3,4-dihydro-2H-pyridine-1-carboxylic acid (4-chloro-3-methoxy-phenyl)-amide]
7.98	Cc1cc(C)c(Br)c(NC(=O)N2C=CC(=O)C[C@H]2c2ccc(F)cc2)c1 [Compound 99, (S)-2-(4-Fluoro-phenyl)-4-oxo-3,4-dihydro-2H-pyridine-1-carboxylic acid (2-bromo-3,5-dimethyl-phenyl)-amide]
5.93	O=C1C=CN(C(=O)Nc2cc3[nH]c(=O)[nH]c3cc2Br)C(c2ccc(F)cc2)C1 (stereo not drawn) [Compound 112, 2-(4-Fluoro-phenyl)-4-oxo-3,4-dihydro-2H-pyridine-1-carboxylic acid (6-bromo-2-oxo-2,3-dihydro-1H-benzoimidazol-5-yl)-amide]
6.315	Cc1cc2cc(NC(=O)N3C=CC(=O)CC3c3ccc(F)cc3)ccc2o1 (stereo not drawn) [Compound 91, 2-(4-Fluoro-phenyl)-4-oxo-3,4-dihydro-2H-pyridine-1-carboxylic acid (2-methyl-benzofuran-5-yl)-amide]
5.995	COc1cc(NC(=O)N2C=CC(=O)CC2c2cccnc2)c(Br)cc1C (stereo not drawn) [Compound 20, 4-Oxo-3,4-dihydro-2H-[2,3′]bipyridinyl-1-carboxylic acid (2-bromo-5-methoxy-4-methyl-phenyl)-amide]
7.405	Cn1ccc2cc(NC(=O)N3C=CC(=O)C[C@H]3c3ccc(F)cc3)ccc21 [Compound 116, (S)-2-(4-Fluoro-phenyl)-4-oxo-3,4-dihydro-2H-pyridine-1-carboxylic acid (1-methyl-1H-indol-5-yl)-amide]
6.31	O=C1C=CN(C(=O)Nc2ccc3ncsc3c2)C(c2ccc(F)cc2)C1 (stereo not drawn) [Compound 117, 2-(4-Fluoro-phenyl)-4-oxo-3,4-dihydro-2H-pyridine-1-carboxylic acid benzothiazol-6-ylamide]
6.87	Cn1cc2cc(NC(=O)N3C=CC(=O)C[C@H]3c3ccc(F)cc3)ccc2n1 [Compound 148, (S)-2-(4-Fluoro-phenyl)-4-oxo-3,4-dihydro-2H-pyridine-1-carboxylic acid (2-methyl-2H-indazol-5-yl)-amide]
8.64	O=C1C=CN(C(=O)Nc2cccc3ncccc23)[C@H](c2ccc(F)cc2)C1 [Compound 154, (S)-2-(4-Fluoro-phenyl)-4-oxo-3,4-dihydro-2H-pyridine-1-carboxylic acid quinolin-5-ylamide]
6.84	Cc1cc(Br)c(NC(=O)N2C=CC(=O)C[C@H]2c2ccc(F)cc2)cc1C#N [Compound 48, (S)-2-(4-Fluoro-phenyl)-4-oxo-3,4-dihydro-2H-pyridine-1-carboxylic acid (2-bromo-5-cyano-4-methyl-phenyl)-amide]
7.595	CN1C(=O)CCc2cc(Br)c(NC(=O)N3C=CC(=O)C[C@H]3c3ccc(F)cc3)cc21 [Compound 128, (S)-2-(4-Fluoro-phenyl)-4-oxo-3,4-dihydro-2H-pyridine-1-carboxylic acid (6-bromo-1-methyl-2-oxo-1,2,3,4-tetrahydro-quinolin-7-yl)-amide]
